Calls of active or inactive are those of the source. The calls are words filed in the database; no cut-off is given here.
Assays:
MCF7 [1] = assay: Effect on homologous recombinant repair in human MCF7 cells expressing wild type RECQL5 assessed as accumulation of RAD50 protein on chromatin at 20 uM incubated for 4 to 24 hrs by Western blot analysis; assay type: functional, cell-based; settings: time 4-24 hrs, TDE = time-dependent effect
MCF7 [2] = assay: Stabilization of RECQL5-RAD51 complex in human MCF7 cells expressing wild type RECQL5 assessed as increase in accumulation of chromatin-bound RECQL5 and RAD51 at 20 uM measured after 4 to 24 hrs by Western blot analysis; assay type: cell-based; settings: time 4-24 hrs, TDE = time-dependent effect
MCF7 [3] = assay: Effect on NHEJ-mediated double strand break repair in RECQL5 knock out human MCF7 cells assessed as accumulation of DNA-dependent protein kinase on chromatin at 20 uM measured up to 24 hrs by Western blot analysis; assay type: cell-based; settings: time hrs <=24
MCF7 [4] = assay: Effect on homologous recombinant repair in human MCF7 cells expressing wild type RECQL5 assessed as accumulation of NBS1 protein on chromatin at 20 uM incubated for 4 to 24 hrs by Western blot analysis; assay type: functional, cell-based; settings: time 4-24 hrs, TDE = time-dependent effect
[5] = Toxicity in nude mouse xenografted with human MCF7 cells assessed as body weight loss at 50 mg/kg, po administered via oral gavage for 30 days and measured every 5 days; assay type: organism-based; settings: in vivo, 720 h, time 30 day
[6] = Inhibition of ds-DNA dependent human RECQL5 ATPase activity measured after 60 mins by luciferin-based multiplate reader method
T47D = assay: Stabilization of RECQL5-RAD51 complex in RECQL5 knock out human T47D cells expressing wild type RECQL5-FLAG assessed as increase in RAD51-RECQL5-FLAG pull down at 20 uM measured after 8 hrs by coimmunoprecipitation assay; assay type: cell-based
[7] = Selectivity ratio of IC20 for cytotoxicity against RECQL5 knock out human MCF7 cells to IC20 for cytotoxicity against human MCF7 cells expressing RECQL5-WT; assay type: functional
[8] = Selectivity ratio of IC20 for cytotoxicity against human MCF-10A cells expressing RECQL5 to IC20 for cytotoxicity against human MCF7 cells expressing RECQL5; assay type: toxicity, cell-based
[9] = target: T1, DNA repair protein RAD51 homolog 1 (Homo sapiens) (UniProt Q06609); assay: Stabilization of RAD51 foci in human MCF7 cells assessed as increase in RAD51 positive cells at 20 uM pretreated with cisplatin for 8 hrs followed by compound addition and measured after 24 hrs by immunofluorescence microscopic analysis; assay type: cell-based
T1 sequence (whole entry): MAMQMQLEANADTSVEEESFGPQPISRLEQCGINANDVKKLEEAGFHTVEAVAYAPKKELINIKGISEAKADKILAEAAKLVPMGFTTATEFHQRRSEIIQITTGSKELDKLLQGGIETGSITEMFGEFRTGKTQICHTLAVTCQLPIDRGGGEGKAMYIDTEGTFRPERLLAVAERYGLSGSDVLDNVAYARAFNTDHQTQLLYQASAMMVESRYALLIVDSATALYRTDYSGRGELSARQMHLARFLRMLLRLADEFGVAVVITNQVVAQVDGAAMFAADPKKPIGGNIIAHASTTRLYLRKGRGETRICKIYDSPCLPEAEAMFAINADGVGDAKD

U2OS = assay: Induction of apoptosis in RECQL5 depleted human U2OS cells assessed as cell death measured after 72 hrs by propidium iodide/RNase A staining based flow cytometric analysis; assay type: functional
MCF7 [10] = assay: Induction of DNA damage in human MCF7 cells expressing wild type RECQL5 assessed as double strand breaks by measuring increase in gamma-H2AX foci formation incubated for 24 hrs by immunofluorescence microscopic analysis; assay type: functional, cell-based; settings: dose 0-20 µM
MCF7 [11] = assay: Reversal of RECQL5 knock out resistance phenotype in human MCF7 cells expressing RECQL5-RFP assessed as reduction in cell viability at 6 to 25 uM measured after 72 hrs by MTT assay; assay type: functional, cell-based; settings: dose 6-25 µM
MCF7 [12] = assay: Induction of DNA damage in RECQL5 knock out human MCF7 cells assessed as double strand breaks by measuring increase in phosphorylation of p53 at S15 residue at 20 uM measured up to 24 hrs by Western blot analysis; assay type: functional, cell-based; settings: time hrs <=24
[13] = Cytotoxicity against human MCF-10A cells expressing RECQL5 assessed as cell growth inhibition measured after 72 hrs by MTT assay; assay type: toxicity, cell-based
[14] = Chronic toxicity in […] mouse assessed as change in behavior at 100 mg/kg, po administered as single dose via gavage measured for 30 days; assay type: organism-based; settings: in vivo, 720 h, time 30 day
MCF7 [15] = assay: Induction of DNA damage in RECQL5 knock out human MCF7 cells assessed as double strand breaks by measuring increase in gamma-H2AX foci formation incubated for 24 hrs by immunofluorescence microscopic analysis; assay type: functional, cell-based
MCF7 [16] = assay: Effect on homologous recombinant repair in human MCF7 cells expressing wild type RECQL5 assessed as accumulation of MRE11 protein on chromatin at 20 uM incubated for 4 to 24 hrs by Western blot analysis; assay type: functional, cell-based; settings: time 4-24 hrs, TDE = time-dependent effect
MCF7 [17] = assay: Antitumor activity against human MCF7 cells expressing wild type RECQL5 xenografted in nude mouse assessed as reduction in tumor growth at 50 mg/kg, po administered as single dose via gavage measured after 30 days; assay type: functional, organism-based; settings: time 30.0 day, TDE = time-dependent effect
MCF7 [18] = assay: Induction of DNA damage in human MCF7 cells expressing wild type RECQL5 assessed as double strand breaks by measuring increase in phosphorylation of CHK2 at T68 residue at 20 uM measured up to 24 hrs by Western blot analysis; assay type: functional, cell-based; settings: time hrs <=24
MDA-MB-231 = assay: Cytotoxicity against ER/PR/HER2-negative human MDA-MB-231 cells expressing wild type RECQL5 and p53 mutant assessed as reduction in colony formation measured after 8 to 10 days by clonogenic survival assay; assay type: functional, cell-based; settings: time 8-10 day
MCF7 [19] = assay: Induction of DNA damage in human MCF7 cells expressing wild type RECQL5 assessed as double strand breaks by measuring increase in phosphorylation of RPA2 at 20 uM measured after 4 to 24 hrs by Western blot analysis; assay type: functional, cell-based; settings: time 4-24 hrs, TDE = time-dependent effect
MCF7 [20] = assay: Inhibition of homologous recombinant repair in RECQL5 knock out human MCF7 cells assessed as stabilization of RAD51-RECQL5 interaction by measuring increase in RAD51 foci formation at 20 uM measured after 4 to 24 hrs by immunofluorescence microscopic analysis; assay type: functional, cell-based; settings: time 4-24 hrs
MCF7 [21] = assay: Induction of DNA damage in RECQL5 knock out human MCF7 cells assessed as double strand breaks by measuring increase in phosphorylation of CHK2 at T68 residue at 20 uM measured up to 24 hrs by Western blot analysis; assay type: functional, cell-based; settings: time hrs <=24
MCF7 [22] = assay: Effect on NHEJ-mediated double strand break repair in human MCF7 cells expressing wild type RECQL5 assessed as accumulation of DNA-dependent protein kinase on chromatin at 20 uM measured up to 24 hrs by Western blot analysis; assay type: cell-based; settings: time hrs <=24
MCF7 [23] = assay: Induction of mitotic catastrophe phenotype in human cisplatin-resistant MCF7 cells assessed as micronucleus formation at 20 uM pretreated with cisplatin for 8 hrs followed by compound addition and measured after 24 hrs by immunofluorescence microscopic analysis; assay type: functional, cell-based
MCF7 [24] = assay: Cytotoxicity against human MCF7 cells expressing RECQL5 assessed as cell growth inhibition measured after 72 hrs by MTT assay; assay type: functional

For O=C(Nc1cc(C(F)(F)F)cc(C(F)(F)F)c1)N[C@@H](c1ccccc1)c1nnc(SCc2ccccc2)o1, the Activity (MCF7 [1]) was “Tde”, the Activity (MCF7 [2]) was “Tde” and the Activity (MCF7 [3]) was “inactive”. For the same compound, the Activity (MCF7 [4]) was “Tde”, the Activity [5] was “Non-Toxic” and the IC50 [6] was 23.9 µM. For the same compound, the Activity (T47D) was “Active”, the selectivity ratio [7] was 2.7 and the selectivity ratio [8] was 4. For the same compound, the Activity [9] was “Active”, the Activity (U2OS) was “inactive” and the Activity (MCF7 [10]) was “Dose-Dependent Effect”. For the same compound, the Activity (MCF7 [11]) was “Active”, the Activity (MCF7 [12]) was “inactive” and the IC20 at 72 h [13] was 33.4 µM. The Activity [14] was “Non-Toxic”, the Activity (MCF7 [15]) was “inactive” and the Activity (MCF7 [16]) was “Tde”. The Activity (MCF7 [17]) was “Tde”, the Activity (MCF7 [18]) was “Active” and the Activity (MDA-MB-231) was “Active”. For the same compound, the Activity (MCF7 [19]) was “Tde”, the inhibition (MCF7 [20]) was “inactive” and the Activity (MCF7 [21]) was “inactive”. For the same compound, the Activity (MCF7 [22]) was “inactive”, the Activity (MCF7 [23]) was “Active” and the IC20 (MCF7 [24]) was 8.4 µM.
